Laboratory results: patent publication US20120184747A1, “ANILINE COMPOUND” (UBE INDUSTRIES, LTD., priority 2009, published 2012)
Counter-ions that a name gives are not always drawn. Like-named read-outs stand apart in the source and are kept apart here.

Columns and labels:
[1] = tested on: isolated guinea pig trachea; test: Isolated guinea pig trachea relaxation test; conditions: Cavia porcellus, read-out: Contraction-inhibiting rate (%)
Experimental: The tracheas were isolated from guinea pigs (Hartley, male, age 7 to 9 weeks, supplier: Nippon SLC) followed by cutting as rings containing cartilage. The trachea specimens were suspended in Krebs solution containing 3 μM indomethacin while applying a load of 1.0 g, and changes in tension were measured through an FD pickup (TB-611T, Nippon Kohden). […] After causing the trachea specimen to contract by electrical field stimulation (SEN-3401, Nippon Kohden) and the contractive reaction being stable, a test compound dissolved in dimethylsulfoxide was added to cause the trachea specimen to relax. The inhibiting rate to the contractive reaction before adding the compound was calculated.

human EP2 receptor [2] = molecular target: T1, human EP2 receptor (Homo sapiens, UniProt P43116); test: Measurement of EP2 agonist activity (cAMP in HEK293 cells expressing human EP2 receptor); type: cell-based; conditions: cAMP increase in HEK293 cells expressing human EP2 receptor, 30 minutes
T1 construct: host or cells: HEK293 cells
T1 sequence (P43116 whole entry): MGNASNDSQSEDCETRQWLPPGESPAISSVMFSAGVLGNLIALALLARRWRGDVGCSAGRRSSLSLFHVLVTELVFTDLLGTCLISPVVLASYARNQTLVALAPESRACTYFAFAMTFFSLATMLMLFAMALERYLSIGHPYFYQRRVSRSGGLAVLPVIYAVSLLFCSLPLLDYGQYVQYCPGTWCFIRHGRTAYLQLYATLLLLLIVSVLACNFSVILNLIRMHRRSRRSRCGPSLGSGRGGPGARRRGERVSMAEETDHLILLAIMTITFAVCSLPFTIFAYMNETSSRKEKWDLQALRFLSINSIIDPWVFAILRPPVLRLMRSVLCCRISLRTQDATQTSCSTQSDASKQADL
Experimental: Measurement of EP2 agonist activity was carried out in compliance with the method of Wilson et al. (European Journal of Pharmacology, 501, 49 (2004)). HEK293 cells expressing human EP2 receptor (ES-562-C, available from Euroscreen) were cultured in MEM medium containing 10% FBS and seeded at 2×10^4 cells per well of a 96-well plate. On the following day, the medium was replaced with serumfree MEM medium containing 3-isobutyl-1-methylxanthine (final concentration: 500 μM) and after culturing for 30 minutes, a test compound dissolved in dimethylsulfoxide was added followed by allowing to stand undisturbed in a carbon dioxide incubator. After 30 minutes, the amount of cAMP in the cells was measured with a cAMP Biotrak EIA System kit (available from GE Healthcare Biosciences). The concentration of test compound required to increase the amount of cAMP to 50% of the maximum increase (EC50 value) was calculated by non-linear regression of the test compound concentration and amount of cAMP using EXSAS.

human EP2 receptor [3] = molecular target: T1, human EP2 receptor; test: Measurement of EP2 receptor binding action; conditions: membrane fraction of HEK293 cells expressing human EP2 receptor; [3H]prostaglandin 10 nM; Ki calculated from IC50
Experimental: Measurement of EP2 receptor binding action was carried out in compliance with the method of Abramovitz et al. (Biochimica et Biophysica Acta, 1483, 285 (2000)). A test compound dissolved in dimethylsulfoxide and [^3H]prostaglandin […] (NET-428, PerkinElmer) (final concentration: 10 nM) were added to a buffer solution (10 mM MES-KOH (pH 6.0), 10 mM MgCl2, 1 mM EDTA) in which was suspended 10 μg of a membrane fraction of HEK293 cells expressing human EP2 receptor (ES-562-M, available from Euroscreen) followed by incubating at 30° C. for 60 minutes. The membrane fraction was recovered on glass fiber filter paper (GF/B, Whatmann) using a cell harvester (M30R, Brandel), and after washing with buffer solution (10 mM MES-KOH (pH 6.0), 10 mM MgCl2), radioactivity was measured with a liquid scintillation analyzer (2000CA, Packard).
Ki=IC50/(1+([^3H]prostaglandin E2 concentration/Kd))
The dissociation constant (Kd value) was calculated by Scatchard analysis.

Row | Compound | inhibition at 10 µM [1] | also measured
1 | CNc1ccc(CN(Cc2cccc(NCC(=O)O)n2)S(=O)(=O)c2cccnc2)cc1 [Example 1, {6-[(4-Methylaminobenzyl) (pyridin-3-ylsulfonyl)aminomethyl]pyridin-2-ylamino}-acetic acid] | 95% | 
2 | CCCS(=O)(=O)N(C)c1ccc(CN(Cc2cccc(NCC(=O)O)n2)S(=O)(=O)c2cccnc2)cc1 [Example 2, [6-({4-[Methyl(propylsulfonyl)amino]benzyl}(pyridin-3-ylsulfonyl)aminomethyl)pyridin-2-ylamino]acetic acid] | 86% | 
3 | CC[N+](C)(CC)c1ccc(CN(Cc2cccc(NCC(=O)O)n2)S(=O)(=O)c2cccnc2)cc1 [Example 4, [6-({4-[Diethyl(methyl)ammonio]benzyl}(pyridin-3-ylsulfonyl)aminomethyl)pyridin-2-ylamino]acetic acid hydrochloride] |  | inhibition at 10 µM ([1]; test compound concentration 10 μM, contraction by electrical field stimulation): 81%
4 | CCCC(=O)N(C)c1ccc(CN(Cc2cccc(NCC(=O)O)n2)S(=O)(=O)c2cccnc2)cc1 [Example 5, [6-({4-[Butyryl(methyl)amino]benzyl}(pyridin-3-ylsulfonyl)aminomethyl)pyridin-2-ylamino]acetic acid] | 92% | 
5 | CN(Cc1ccccc1)c1ccc(CN(Cc2cccc(NCC(=O)O)n2)S(=O)(=O)c2cccnc2)cc1 [Example 6, [6-({4-[Benzyl(methyl)amino]benzyl}(pyridin-3-ylsulfonyl)aminomethyl)pyridin-2-ylamino]acetic acid] | 94% | 
6 | CCCCN(C)c1ccc(CN(Cc2cccc(NCC(=O)O)n2)S(=O)(=O)c2ccccn2)cc1 [Example 7, [6-({4-[Butyl(methyl)amino]benzyl}(pyridin-2-ylsulfonyl)aminomethyl)pyridin-2-ylamino]acetic acid] |  | EC50 (human EP2 receptor [2]): 1.2 nM; inhibition at 0.03 µM [1]: 84%; Ki (human EP2 receptor [3]): 10 nM
